Here are results for 11 molecules from US20110065632A1, “PHARMACEUTICAL COMPOSITIONS OF SOMATOSTATIN-DOPAMINE CONJUGATES” (priority 2008, published 2011).

What is called Ki is a measure of affinity in units of concentration, obtained from inhibition or displacement.

Like-named read-outs stand apart in the source and are kept apart here. Bridge positions count the residues as written; N and C are the ends. Square brackets hold non-standard residues; d marks the D form. Peptide text beside a SMILES is read from it. * marks the point of attachment. X1 = CCCN1C[C@H](CSCC(=O)*)C[C@@H]2c3cccc4[nH]cc(c34)C[C@H]21; Tyr(3-I) = N[C@@H](Cc1ccc(O)c(I)c1)C(=O)O; Dopa = N[C@@H](Cc1ccc(O)c(O)c1)C(=O)O; Abu = CC[C@H](N)C(=O)O

One test addresses hDA2. Put plainly: Dopamine-2 receptor radioligand binding assay. Set-up: species or system human. Conditions: [3H]spiperone. Here is the method: Specificity and selectivity for the dopamine-2 receptor of the dopamine analogues used to synthesize the somatostatin-dopamine chimers may be determined by a radioligand binding assay as follows.
Crude membranes were prepared by homogenization of frozen rat corpus striatum (Zivic Laboratories, Pittsburgh, Pa., USA) in 20 mL of ice-cold 50 mM Tris-HCl with a Brinkman Polytron cell disrupter (setting 6, 15 sec). Buffer was added to obtain a final volume of 40 mL, and the homogenate was centrifuged in a Sorval SS-34 rotor at 39,000 g for 10 minutes at 0-4° C. The resulting supernatant was decanted and discarded. The pellet was rehomogenized in ice-cold buffer, pre-incubated at 37° C. for 10 min, diluted, and centrifuged as before. The final pellet was resuspended in buffer and held on ice for the receptor binding assay.
For assay, aliquots of the washed membrane preparations and test compounds were incubated for 15 minutes (37° C.) with 0.25 nM [^3HI]spiperone (16.5 Ci.mmol, New England Nuclear, Boston, Mass., USA) in 50 mM Tris HCl, 120 mM NaCl, 5 mM KCl, 2 mM CaCl2, 1 mM MgCl2. The final assay volume was 1.0 mL. The incubations were terminated by rapid filtration through GF/B glass fibre filters using a Brandel filtration manifold. Each tube and filter was then washed three times with 5-mL aliquots of ice-cold buffer. Specific binding was defined as the total radioligand bound minus that bound in the presence of 1000 nM (+) butaclamol.
(§1) Using the discussed assays, the inhibition constants (Ki) for the five human somatostatin receptors (hSSTR1-hSSTR5) and the dopamine-2 receptor (hUTII and hDA2) were measured for the exemplified somatostatin-dopamine conjugates, as follows: […]

The next test addresses T1, hsst5 (Homo sapiens, UniProt P35346).
T1 construct: expressed in transfected cells
Put plainly: Somatostatin receptor radioligand binding assay, hsst5. Conditions: CHO-K1 membranes, [125I-Tyr11]SS-14. As for the experimental part: (§2) Specificity and selectivity of the somatostatin analogues used to synthesize the somatostatin-dopamine chimers were determined by a radioligand binding assay on CHO-K1 cells stably transfected with each of the SSTR subtypes, as follows. Somatostatin analogs are also described in U.S. Patent Application Publication No. 02210006790. The complete coding sequences of genomic fragments of the SSTR 1 (e.g., Genbank accession No. M81829), SSTR 2 (e.g., Genbank accession No. M81830), SSTR 3 (e.g., Genbank accession No. L07062), and SSTR 4 (e.g., Genbank accession No. AL049651) genes and a cDNA clone for SSTR 5 (e.g., Genbank accession No. D16827) was subcloned into the mammalian expression vector pCMV (Life Technologies, Milano, Italy). Other SSTR sequences are known to the skilled artisan. Clonal cell lines stably expressing SSTR's 1-5 were obtained by transfection into CHO-K1 cells (ATCC, Manassas, Va., USA) using the calcium phosphate co-precipitation method (Davis L, et al., 1994 In: Basic methods in Molecular Biology, 2nd edition, Appleton & Lange, Norwalk, Conn., USA: 611-646). The plasmid pRSV-neo (ATCC) was included as a selectable marker. Clonal cell lines were selected in RPMI 1640 media containing 0.5 mg/mL of G418 (Life Technologies, Milano, Italy), ring cloned, and expanded into culture.
(§3) Membranes for in vitro receptor binding assays were obtained by homogenizing the CHO-K1 cells expressing the SSTR's subtypes in ice-cold 50 mM Tris-HCl and centrifuging twice at 39,000 g (10 min), with an intermediate resuspension in fresh buffer. The final pellets were resuspended in 10 mM Tris-HCl for assay.
(§4) For the SSTR 1, 3, 4, and 5 assays, aliquots of the membrane preparations were incubated 90 minutes at 25° C. with 0.05 nM [^125I-Tyr11]SS-14 in 50 mM HEPES (pH 7.4) containing 10 mg/mL BSA, 5 mM MgCl2, 200 KIU/mL Trasylol, 0.02 mg/mL bacitracin, and 0.02 mg/mL phenylmethylsuphonyl fluoride. The final assay volume was 0.3 mL.
(§5) For the SSTR 2 assay, 0.05 nM [^125I]MK-678 was employed as the radioligand and the incubation time was 90 minutes at 25° C. The incubations were terminated by rapid filtration through GF/C glass microfiber filters (Whatman Co.) (pre-soaked in 0.3% polyethylenimine) using a BRANDEL filtration manifold. Each tube and filter was washed three times with 5 mL aliquots of ice-cold buffer. Specific binding was defined as the total radioligand bound minus that bound in the presence of 1000 nM SS-14 for SSTR 1, 3, 4, and 5, or 1000 nM MK-678 for SSTR2.

The target of a further test is T2, hUTII (Homo sapiens, UniProt Q9UKP6).
T2 sequence (Q9UKP6 1-389): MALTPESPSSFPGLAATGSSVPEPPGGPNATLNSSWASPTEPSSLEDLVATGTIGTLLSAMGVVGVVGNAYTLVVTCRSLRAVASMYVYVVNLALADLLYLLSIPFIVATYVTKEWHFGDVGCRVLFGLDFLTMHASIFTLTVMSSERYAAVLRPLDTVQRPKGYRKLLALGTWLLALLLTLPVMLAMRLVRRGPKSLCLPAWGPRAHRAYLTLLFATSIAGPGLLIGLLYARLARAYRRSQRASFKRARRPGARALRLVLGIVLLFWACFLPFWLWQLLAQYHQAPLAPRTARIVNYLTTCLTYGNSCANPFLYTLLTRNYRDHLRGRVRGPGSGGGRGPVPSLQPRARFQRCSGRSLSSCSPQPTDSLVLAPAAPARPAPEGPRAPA
Put plainly: hUTII inhibition constant. It counts as binding. Here is the method:
as §1

For the next test, the target named is T3, hsst3 (Homo sapiens, UniProt P32745).
T3 construct: expressed in transfected cells
T3 sequence (P32745 whole entry): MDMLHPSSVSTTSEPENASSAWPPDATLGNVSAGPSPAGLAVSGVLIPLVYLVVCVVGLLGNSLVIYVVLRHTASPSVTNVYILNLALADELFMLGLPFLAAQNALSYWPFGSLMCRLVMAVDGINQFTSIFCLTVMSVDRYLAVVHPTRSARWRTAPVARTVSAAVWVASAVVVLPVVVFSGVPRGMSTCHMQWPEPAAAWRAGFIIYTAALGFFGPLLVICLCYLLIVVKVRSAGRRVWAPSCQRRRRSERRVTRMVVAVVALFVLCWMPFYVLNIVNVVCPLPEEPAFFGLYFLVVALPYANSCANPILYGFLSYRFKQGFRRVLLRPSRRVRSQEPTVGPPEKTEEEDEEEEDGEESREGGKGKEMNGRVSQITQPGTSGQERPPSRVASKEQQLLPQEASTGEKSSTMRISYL
Description: Somatostatin receptor radioligand binding assay, hsst3. Here is the method:
as §2, §3, §4, §5, §1

A further test deals with T4, hsst2 (Homo sapiens, UniProt P30874).
T4 construct: expressed in transfected cells
T4 sequence (P30874 whole entry): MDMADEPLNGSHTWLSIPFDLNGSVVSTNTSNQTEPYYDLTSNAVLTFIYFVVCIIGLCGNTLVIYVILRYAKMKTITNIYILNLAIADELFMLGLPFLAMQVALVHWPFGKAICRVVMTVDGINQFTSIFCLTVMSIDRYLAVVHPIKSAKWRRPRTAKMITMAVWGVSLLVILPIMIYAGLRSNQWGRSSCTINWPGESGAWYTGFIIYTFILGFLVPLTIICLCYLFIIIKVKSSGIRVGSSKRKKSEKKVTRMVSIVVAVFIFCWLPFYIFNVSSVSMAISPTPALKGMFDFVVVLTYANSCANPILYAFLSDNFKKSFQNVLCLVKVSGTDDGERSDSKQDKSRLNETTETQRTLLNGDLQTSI
Description: Somatostatin receptor radioligand binding assay, hsst2. The conditions noted are these: CHO-K1 membranes, [125I]MK-678. Here is the method: as §2, §3, §5

[1] abbreviates: CHO-K1 membranes, [125I-Tyr11]SS-14, read-out: hsst3 Ki.

T1 sequence (P35346 whole entry): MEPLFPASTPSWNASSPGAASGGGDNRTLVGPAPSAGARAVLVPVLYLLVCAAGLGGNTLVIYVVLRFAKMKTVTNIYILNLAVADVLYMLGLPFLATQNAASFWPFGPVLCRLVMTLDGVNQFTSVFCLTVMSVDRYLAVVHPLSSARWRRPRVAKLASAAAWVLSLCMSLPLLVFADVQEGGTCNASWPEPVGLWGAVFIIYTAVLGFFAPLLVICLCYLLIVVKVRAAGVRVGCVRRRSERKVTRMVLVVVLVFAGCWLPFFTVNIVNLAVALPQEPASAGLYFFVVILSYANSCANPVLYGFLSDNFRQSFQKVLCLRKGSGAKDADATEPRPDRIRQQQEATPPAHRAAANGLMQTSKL

Turning to `CCCN1C[C@H](CSCC(=O)NCCCC[C@@H](NC(=O)CSC[C@@H]2C[C@@H]3c4cccc5[nH]cc(c45)C[C@H]3N(CCC)C2)C(=O)N[C@H](Cc2ccccc2)C(=O)N[C@H]2CSSC[C@@H](C(=O)N[C@H](C(N)=O)[C@@H](C)O)NC(=O)[C@H]([C@@H](C)O)NC(=O)[C@H](CCCCN)NC(=O)[C@@H](Cc3c[nH]c4ccccc34)NC(=O)[C@H](Cc3ccc(O)c(I)c3)NC2=O)C[C@@H]2c3cccc4[nH]cc(c34)C[C@H]21` [Example 15], the Ki on hDA2 worked out at 18.3 nM; at hsst5 (read-out: hsst5 Ki), 6.29 nM.

Consider `CCCN1C[C@H](CSCC(=O)NCCCC[C@@H](NC(=O)CSC[C@@H]2C[C@@H]3c4cccc5[nH]cc(c45)C[C@H]3N(CCC)C2)C(=O)N[C@H](Cc2ccc(O)cc2)C(=O)N[C@H](Cc2ccc(O)cc2)C(=O)N[C@H]2CSSC[C@@H](C(=O)N[C@H](C(N)=O)[C@@H](C)O)NC(=O)[C@H]([C@@H](C)O)NC(=O)[C@H](CCCCN)NC(=O)[C@@H](Cc3c[nH]c4ccccc34)NC(=O)[C@H](Cc3ccc(O)c(I)c3)NC2=O)C[C@@H]2c3cccc4[nH]cc(c34)C[C@H]21` [Example 16] (X1-[dK](X1)[dY][dY]C[Tyr(3-I)][dW]KTCT-NH2; disulfide 4-9), for which the Ki worked out at 549 nM on hUTII (read-out: hUTII Ki); 76.4 nM at hsst3 (setting [1]); 8.56 nM at hDA2; 0.16 nM at hsst2 (read-out: hsst2 Ki); 7.43 nM on hsst5 (read-out: hsst5 Ki).

Regarding `CCCN1C[C@H](CSCC(=O)NCCCC[C@H](NC(=O)CSC[C@@H]2C[C@@H]3c4cccc5[nH]cc(c45)C[C@H]3N(CCC)C2)C(=O)N[C@H](Cc2ccccc2)C(=O)N[C@H]2CSSC[C@@H](C(=O)N[C@H](C(N)=O)[C@@H](C)O)NC(=O)[C@H](CC)NC(=O)[C@H](CCCCN)NC(=O)[C@@H](Cc3c[nH]c4ccccc34)NC(=O)[C@H](Cc3ccc(O)cc3)NC2=O)C[C@@H]2c3cccc4[nH]cc(c34)C[C@H]21` [Example 17], the Ki on hUTII (read-out: hUTII Ki) was determined as 496 nM; at hsst3 (setting [1]) it was 106 nM; at hDA2, 17.6 nM; at hsst2 (read-out: hsst2 Ki), 0.18 nM; at hsst5 (read-out: hsst5 Ki) it was 54 nM.

`CC[C@@H]1NC(=O)[C@H](CCCCN)NC(=O)[C@@H](Cc2c[nH]c3ccccc23)NC(=O)[C@H](Cc2ccc(O)cc2)NC(=O)[C@@H](NC(=O)[C@@H](Cc2ccccc2)NC(=O)[C@H](CCCCNC(=O)[C@@H](N)Cc2ccc(O)c(O)c2)NC(=O)[C@@H](N)Cc2ccc(O)c(O)c2)CSSC[C@@H](C(=O)N[C@H](C(N)=O)[C@@H](C)O)NC1=O` [Example 18] (H-[Dopa]K(Dopa)[dF]CY[dW]K[Abu]CT-NH2; disulfide 4-9): the Ki at hUTII (read-out: hUTII Ki) stood at 1000 nM; on hsst3 (setting [1]), 167 nM; on hDA2, 3000 nM; on hsst2 (read-out: hsst2 Ki) it was 0.36 nM; on hsst5 (read-out: hsst5 Ki), 32 nM.

For the molecule `CC[C@@H]1NC(=O)[C@H](CCCCN)NC(=O)[C@@H](Cc2c[nH]c3ccccc23)NC(=O)[C@H](Cc2ccc(O)cc2)NC(=O)[C@@H](NC(=O)[C@@H](Cc2ccccc2)NC(=O)[C@@H](N)Cc2ccc(O)c(O)c2)CSSC[C@@H](C(=O)N[C@H](C(N)=O)[C@@H](C)O)NC1=O` [Example 19], the Ki at hUTII (read-out: hUTII Ki) worked out at 2250 nM; on hsst3 (setting [1]) it was 146 nM; at hDA2 it was 3000 nM; on hsst2 (read-out: hsst2 Ki), 0.41 nM; at hsst5 (read-out: hsst5 Ki), 19.7 nM.

At hDA2, `CC[C@@H]1NC(=O)[C@H](CCCCN)NC(=O)[C@@H](Cc2c[nH]c3ccccc23)NC(=O)[C@H](Cc2ccc(O)cc2)NC(=O)[C@@H](NC(=O)[C@@H](Cc2ccccc2)NC(=O)CN(C)C(=O)N[C@H]2C[C@@H]3c4cccc5[nH]cc(c45)C[C@H]3N(C)C2)CSSC[C@@H](C(=O)N[C@H](C(N)=O)[C@@H](C)O)NC1=O` [Example 20] showed a Ki of 95.2 nM.

In the case of `CC[C@@H]1NC(=O)[C@H](CCCCN)NC(=O)[C@@H](Cc2c[nH]c3ccccc23)NC(=O)[C@H](Cc2ccc(O)cc2)NC(=O)[C@@H](NC(=O)[C@@H](Cc2ccccc2)NC(=O)CN(C)C(=O)N[C@H]2C[C@@H]3c4cccc5[nH]cc(c45)C[C@H]3N(C)C2)CSSC[C@@H](C(=O)N[C@H](C(N)=O)[C@@H](C)O)NC1=O` [Example 27], the Ki at hUTII (hUTII Ki) amounted to 1280 nM; on hsst3, 140 nM; at hsst2 (hsst2 Ki), 0.02 nM; on hsst5 (hsst5 Ki), 22.8 nM.

Take `CCCN1C[C@H](CNC(=O)CCCC(=O)N[C@H](Cc2ccccc2)C(=O)N[C@H]2CSSC[C@@H](C(=O)N[C@H](C(N)=O)[C@@H](C)O)NC(=O)[C@H](CC)NC(=O)[C@H](CCCCN)NC(=O)[C@@H](Cc3c[nH]c4ccccc34)NC(=O)[C@H](Cc3ccc(O)cc3)NC2=O)C[C@@H]2c3cccc4[nH]cc(c34)C[C@H]21` [Example 29]: the results for the Ki at hDA2 and on hsst2 (read-out: hsst2 Ki) were 226 nM and 0.14 nM, respectively.

Regarding `CCCN1C[C@H](CSCC(=O)NCCN2CCN(CC(=O)NCCN3CCN(CC(=O)N[C@H](Cc4ccccc4)C(=O)N[C@H]4CSSC[C@@H](C(=O)N[C@H](C(N)=O)[C@@H](C)O)NC(=O)[C@H](C(C)C)NC(=O)[C@H](CCCCN)NC(=O)[C@@H](Cc5c[nH]c6ccccc56)NC(=O)[C@H](Cc5ccc(O)c(I)c5)NC4=O)CC3)CC2)C[C@@H]2c3cccc4[nH]cc(c34)C[C@H]21` [Example 37], the Ki on hUTII (read-out: hUTII Ki) was 421 nM; on hsst3 (setting [1]), 374 nM; on hDA2, 126 nM; at hsst2 (read-out: hsst2 Ki), 1.26 nM.

In the case of `CC(C)[C@@H]1NC(=O)[C@H](CCCCN)NC(=O)[C@@H](Cc2c[nH]c3ccccc23)NC(=O)[C@H](Cc2ccc(O)c(I)c2)NC(=O)[C@@H](NC(=O)[C@@H](Cc2ccccc2)NC(=O)CN2CCN(CCNC(=O)CN3CCN(CCNC(=O)CSC[C@@H]4C[C@@H]5c6cccc7[nH]cc(c67)C[C@H]5N(C)C4)CC3)CC2)CSSC[C@@H](C(=O)N[C@H](C(N)=O)[C@@H](C)O)NC1=O` [Example 39], the inhibition constant (Ki) came to 241 nM at hUTII (read-out: hUTII Ki), 136 nM at hsst3, 310 nM at hDA2 and 0.42 nM at hsst2 (read-out: hsst2 Ki).

`CC(C)[C@@H]1NC(=O)[C@H](CCCCN)NC(=O)[C@@H](Cc2c[nH]c3ccccc23)NC(=O)[C@H](Cc2ccc(O)c(I)c2)NC(=O)[C@@H](NC(=O)[C@@H](Cc2ccccc2)NC(=O)COCCOCCNC(=O)CSC[C@@H]2C[C@@H]3c4cccc5[nH]cc(c45)C[C@H]3N(C)C2)CSSC[C@@H](C(=O)N[C@H](C(N)=O)[C@@H](C)O)NC1=O` [Example 41] had a Ki at hDA2 of 217 nM.
